Test system: ICAM-1, P-selectin and VCAM-1 on HBMEC
Assay: Immunofluorescence staining of HBMEC after T cell-rolling
Type: cell-based, human
Description: After rolling and adhesion of T cells on HBMEC or HUVEC under flow conditions, endothelial cells were fixed using 150 μl of 4% paraformaldehyde solution (#P-6148, Sigma-Aldrich) for 30 min at 4° C. μ-slides were rinsed with 150 μl of D-PBS and subjected to immunofluorescence staining. HBMEC were first blocked with 150 μl of avidin blocking reagent (#PHA-70871, reagent 1, Dianova) for 10 min at room temperature, washed with 150 μl of D-PBS followed by incubation with 150 μl of biotin blocking reagent (#PHA-70871, reagent 2, Dianova). All following staining procedures were performed in 150 μl of D-PBS with 5% FBS at room temperature in the dark, and washing steps were done in 150 μl of D-PBS. μ-slides were incubated with 5 μg/ml polyclonal rabbit anti-human VCAM-1 (#106777, abcam) for 1 h. After washing, 20 μg/ml goat anti-rabbit IgG-DyLight350 was added for 1 h followed by washing and incubation with 15 μg/ml mouse anti-human P-selectin IgG1 (#BBA30, R&D Systems) for 2 h. After washing, goat anti-mouse IgG-Alexa488 (1:100) (#A10680, Invitrogen) was added for 1 h. […] VCAM-1 staining was monitored with a CFL EPI-FL Filter Block UV-2A (#MBE41200, Nikon), P-selectin staining with a CFL EPI-FL Filter Block GFP-B (#MBE44740, Nikon), and ICAM-1 staining with an EPI-FL Filter Block Cy3 (#MXU96213, Nikon). […]

Q: Which results are given for “Blinatumomab: recombinant CD19×CD3 bispecific scFv antibody consisting of four immunoglobulin variable domains assembled into a single polypeptide chain”?
A: surface expression of adhesion molecules on HBMEC (after T cell-rolling with Blinatumomab-stimulated T cells, 120 min): increased surface expression of adhesion molecules ICAM-1, P-selectin and VCAM-1; cell surface expression of P-selectin on HBMEC (histamine-stimulated HBMEC, Blinatumomab added, no PPS): increased
